target: PD-L1 (Homo sapiens (Human), UniProt Q9NZQ7); assay: PD-L1 HTRF assay (PD-1/PD-L1 interaction); assay type: binding; details: PD-L1 His 6 nM, PD-1 Fc 6 nM; inhibitors 3-fold diluted from 20 μM
Protocol: PD-L1 small molecule inhibitors were diluted by 3-fold starting from 20 μM and a final concentration of 0.001 μM and added to the well. PD-1 Fc protein was added at the final concentration of 6 nM. PD-L1 His protein, PD-L1 small molecule inhibitors, and PD1 Fc proteins were added to the well in this order, with each 5 μl volume, and were incubated for 15 minutes at room temperature. […] The plate was read using PerkinElmer Envision plate reader and data was analyzed by Prism 6 software.

PD-L1, sequence (Q9NZQ7 19-238): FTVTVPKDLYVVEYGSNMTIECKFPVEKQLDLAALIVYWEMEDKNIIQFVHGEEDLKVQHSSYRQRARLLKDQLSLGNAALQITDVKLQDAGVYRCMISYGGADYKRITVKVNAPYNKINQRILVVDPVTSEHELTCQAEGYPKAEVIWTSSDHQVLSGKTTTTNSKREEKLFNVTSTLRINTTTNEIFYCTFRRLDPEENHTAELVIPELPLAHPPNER

Compound | IC50 [µM]
COc1cc(OCc2cccc(-c3cccc(COc4cc(OC)c(CN5CCCC[C@H]5C(=O)O)cc4Cl)c3C)c2C)c(Cl)cc1CO [Example 30, (2S)-1-[[5-chloro-4-[[3-[3-[[2-chloro-4-(hydroxymethyl)-5-methoxy-phenoxy]methyl]-2-methyl-phenyl]-2-methyl-phenyl]methoxy]-2-methoxy-phenyl]methyl]piperidine-2-carboxylic acid] | 0.004
Cc1c(COc2ccc(-c3ncc[nH]3)c(OCc3cccc(C#N)c3)c2)cccc1-c1ccccc1 [Example 2, 3-[[2-(1H-Imidazol-2-yl)-5-[(2-methyl-3-phenyl-phenyl)methoxy]phenoxy]methyl] benzonitrile] | 20
Cc1c(COc2cc(OCc3cncc(C#N)c3)c(C3=NCCCN3CCO)cc2Cl)cccc1-c1cccc(OCCCN2CCC(O)CC2)c1C [Example 17, 5-[[4-Chloro-2-[1-(2-hydroxyethyl)-5,6-dihydro-4H-pyrimidin-2-yl]-5-[[3-[3-[3-(4-hydroxy-1-piperidyl)propoxy]-2-methyl-phenyl]-2-methyl-phenyl]methoxy]phenoxy]methyl] pyridine-3-carbonitrile] | 0.0015
Cc1c(COc2cc(OCc3cncc(C#N)c3)c(C3=NCC(OCC(=O)O)CN3)cc2Cl)cccc1-c1cccc(OCCCN2CCC(O)CC2)c1C (stereo not drawn) [Example 21, 2-[[2-[5-Chloro-2-[(5-cyano-3-pyridyl)methoxy]-4-[[3-[3-[3-(4-hydroxy-1-piperidyl)propoxy]-2-methyl-phenyl]-2-methyl-phenyl]methoxy]phenyl]-1,4,5,6-tetrahydropyrimidin-5-yl]oxy] acetic acid] | 0.0008
Cc1c(COc2ccc(C3=NCCN3CCO)c(OCc3cccc(C#N)c3)c2)cccc1-c1ccccc1 [Example 6, 3-[[2-[1-(2-Hydroxyethyl)-4,5-dihydroimidazol-2-yl]-5-[(2-methyl-3-phenyl-phenyl)methoxy]phenoxy]methyl]benzonitrile] | 0.053
Cc1c(COc2cc(OCc3cncc(C#N)c3)c(C3=NCC(O)CN3CCO)cc2Cl)cccc1-c1cccc(OCCCN2CCC(O)CC2)c1C (stereo not drawn) [Example 23] | 0.014
Cc1c(COc2ccc(-c3nccn3CCO)c(OCc3cccc(C#N)c3)c2)cccc1-c1ccccc1 [Example 7, 3-[[2-[1-(2-Hydroxyethyl)imidazol-2-yl]-5-[(2-methyl-3-phenyl-phenyl)methoxy]phenoxy]methyl]benzonitrile] | 1.8
Cc1c(COc2ccc(C3=NCC(O)CN3)c(OCc3cccc(C#N)c3)c2)cccc1-c1ccccc1 (stereo not drawn) [Example 10, 3-[[2-(5-Hydroxy-1,4,5,6-tetrahydropyrimidin-2-yl)-5-[(2-methyl-3-phenyl-phenyl)methoxy]phenoxy]methyl]benzonitrile] | 0.1
Cc1c(COc2cc(OCc3cncc(C#N)c3)c(C3=NCC(O)CN3)cc2Cl)cccc1-c1cccc(OCC(CN2CCC(O)CC2)c2ccccc2)c1C (stereo not drawn) [Example 25, 5-[[4-chloro-5-[[3-[3-[3-(4-hydroxy-1-piperidyl)-2-phenyl-propoxy]-2-methyl-phenyl]-2-methyl-phenyl]methoxy]-2-(5-hydroxy-1,4,5,6-tetrahydropyrimidin-2-yl)phenoxy]methyl]pyridine-3-carbonitrile] | 0.03
5-(((1,3-dihydroxypropan-2-yl)amino)methyl)-N-(3′-(5-(((2-hydroxyethyl)amino)methyl)picolinamido)-2,2′-dimethyl-[1,1′-biphenyl]-3-yl)picolinamide [Example 36] | 0.0004
COc1cc(OCc2cccc(-c3cccc(COc4cc(OC)c(CNCCO)cc4Cl)c3C)c2C)c(Cl)cc1CNCCO [Example 31, 2,2′-((((((2,2′-Dimethyl-[1,1′-biphenyl]-3,3′-diyl)bis(methylene))bis(oxy))bis (5-chloro-2-methoxy-4,1-phenylene))bis(methylene))bis(azanediyl))bis(ethan-1-ol)] | 0.001
Cc1c(COc2ccc(C3=NCCN3)c(OCc3cccc(C#N)c3)c2)cccc1-c1ccccc1 [Example 1, 3-((2-(4,5-Dihydro-1H-imidazol-2-yl)-5-((2-methyl-[1,1′-biphenyl]-3-yl)methoxy)phenoxy)methyl)benzonitrile] | 0.28

From US20240374595A1, “SUBSTITUTED 1,1'-BIPHENYL COMPOUNDS, ANALOGUES THEREOF, AND METHODS USING SAME” (Arbutus Biopharma Corporation, priority 2018, published 2024)
